Like-named read-outs stand apart in the source and are kept apart here.

Here are results for 24 molecules from patent US4393228A, “Epoxysuccinic acid derivatives” (Taisho Pharmaceutical Co., Ltd., priority 1977, dated 1983).

The target of data set [1] is T1, papain (Carica papaya, UniProt P00784).
T1 construct: purchased Sigma Chem. Co
T1 sequence (P00784 134-345): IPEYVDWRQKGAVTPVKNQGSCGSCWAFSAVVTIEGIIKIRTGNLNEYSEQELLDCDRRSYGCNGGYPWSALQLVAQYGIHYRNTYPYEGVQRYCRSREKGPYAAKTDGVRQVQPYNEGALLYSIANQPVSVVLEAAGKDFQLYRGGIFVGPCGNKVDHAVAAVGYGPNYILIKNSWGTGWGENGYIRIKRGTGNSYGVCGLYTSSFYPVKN
The experiment in a line: Papain inhibitory activity (milk casein digestion). The class given is biochemical. The conditions noted are these: papain 80 μg/ml 0.5 ml, cysteine, pH 6.8, 1% milk casein, 40° C., 10 minutes. An outline of the steps:
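Papain (80 μg/ml stock) preincubated 15 min at 40 °C with inhibitor, cysteine/EDTA activator and phosphate buffer pH 6.8. Then 1% milk casein digested 10 min at 40 °C, stopped with trichloroacetic acid and filtered; filtrate absorbance at 280 nm gives percent inhibition versus no-inhibitor control.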

In data set [2] the test system is adjuvant induced polyarthritis. Put plainly: Inhibition of adjuvant induced polyarthritis in rats (hind paw volume). The class given is in vivo, Sprague Dawley rat. The conditions noted are these: Rattus norvegicus. The protocol: Effect of the compounds of this invention on the development of adjuvant-induced polyarthritis in rats was assayed as follows: Adjuvant arthritis was produced by a single intracutaneous injection of 0.1 ml of the adjuvant mixture containing heat-killed mycobacteria of the human Aoyama B strain suspended in liquid paraffin in 0.6% in the middle part of the distal tail of Sprague Dawley rat (female, 8 weeks old). […] The activity was measured as the mean inhibition percent for the increase of the hind paw volume of the 8 rats/group on the days 17 and 23 on which the legs become inflamed and reach maximum volumes. The compound Nos. in Table 2 are as defined in Examples as described hereinafter.

The conditions of data set [3]: prior art compound; cited from earlier work.
Data set [4] has as its system thiol proteases. The conditions noted are these: U.S. Pat. No. 3,911,111; cited from earlier work.
The conditions of data set [5]: U.S. Pat. No. 3,911,111; cited from earlier work.
Setting [6] is: 408 h, 100 mg/kg of body weight, daily oral, day 17, read-out: Inhibition % 17 days (increase of hind paw volume).
[7] abbreviates: 552 h, 100 mg/kg of body weight, daily oral, day 23, read-out: Inhibition % 23 days (increase of hind paw volume).
Setting [8] is: po, 408 h, read-out: Inhibition % 17 days (increase of hind paw volume).
Setting [9] is: po, 552 h, read-out: Inhibition % 23 days (increase of hind paw volume).

As for `O=C(O)[C@@H]1O[C@H]1C(=O)OC1CCCCC1` (relative stereo) [EP-2, cyclohexyl potassium epoxysuccinate], the “ID50 (amount of inhibitor for 50% inhibition)” value in data set [1] was 0.07 γ. For the same molecule, the inhibition in vivo at 100 mg/kg in data set [2] (setting [6]) is 43.2%; in data set [2] (setting [7]) it was 50%.
On the same counts, the results for `CCOC(=O)[C@H]1O[C@@H]1C(=O)O` (relative stereo) [EP-137, ethyl potassium epoxysuccinate] are 2.08 γ, 40% and 38.5%.
Regarding `O=C(OCc1cccc2ccccc12)[C@@H]1O[C@H]1C(=O)OCc1cccc2ccccc12` (relative stereo) [EP-81, di-1'-naphthylmethyl epoxysuccinate], the “ID50 (amount of inhibitor for 50% inhibition)” value in data set [1] is given as 1.30 γ. In addition, the inhibition in vivo at 100 mg/kg in data set [2] (setting [6]) came to 64.3%; in data set [2] (setting [7]) it was 83.6%.
On the same counts, the results for `O=C(OCc1cccc(F)c1)[C@H]1O[C@@H]1C(=O)OCc1cccc(F)c1` (relative stereo) [EP-121, di-m-fluorobenzyl epoxysuccinate] are 0.46 γ, 53.6% and 38.9%.
On the same counts, the results for `O=C(O)[C@H]1O[C@@H]1C(=O)OCc1ccc(Cl)cc1` (relative stereo) [EP-116, p-chlorobenzyl potassium epoxysuccinate] are 0.32 γ, 35% and 33.5%.
In the same order, the values of `C[C@H]1CC[C@@H](OC(=O)[C@@H]2O[C@H]2C(=O)O[C@H]2CC[C@@H](C)CC2)CC1` (relative stereo) [EP-17, di-4'-cis-methylcyclohexyl epoxysuccinate] are 1.79 γ, 100% and 78.7%.
In the case of `CC(C)C[C@H](NC(=O)C1OC1C(=O)[O-])C(=O)[O-].[K+].[K+]` (stereo partly drawn) [EP-174, N-(3-carboxyoxirane-2-carbonyl)-L-leucine dipotassium salt], the “ID50 (amount of inhibitor for 50% inhibition)” value in data set [1] is reported as 0.20 γ. The figures for the inhibition in vivo at 100 mg/kg in data set [2] (setting [8]) and in data set [2] (setting [9]) were 30.5% and 29%, respectively.
`O=C(O)[C@H]1O[C@@H]1C(=O)OCc1ccccc1` (relative stereo) [EP-143, benzyl potassium epoxysuccinate]: the “ID50 (amount of inhibitor for 50% inhibition)” value in data set [1] was 0.15 γ. The values for the inhibition in vivo at 100 mg/kg in data set [2] (setting [6]) and in data set [2] (setting [7]) were 45.1% and 35.6%, respectively.
As to `O=C(OCC1CCCO1)[C@@H]1O[C@H]1C(=O)OCC1CCCO1` (relative stereo) [EP-75, di-tetrahydro-2-furanmethyl epoxysuccinate], the “ID50 (amount of inhibitor for 50% inhibition)” value in data set [1] is 1.65 γ. Further, the inhibition in vivo at 100 mg/kg in data set [2] (setting [6]) came out at 89.6%; in data set [2] (setting [7]), 41%.
In the same order, the values of `CCCCCOC(=O)[C@H]1O[C@@H]1C(=O)O` (relative stereo) [EP-144, n-amyl potassium epoxysuccinate] are 0.34 γ, 33.3% and 32.1%.
In the case of `CC(C)C[C@H](NC(=O)[C@H]1O[C@@H]1C(=O)O)C(=O)NCCCCN=C(N)N` [E-64], the “acceleration of vascular permeability (side effect)” value in data set [3] is reported as “acceleration of vascular permeability”. The “thiol protease inhibitory activity” value in data set [4] was “possessing thiol protease inhibitory activity”. Besides, in data set [5], the anti-inflammatory activity entry is reported as “anti-inflammatory activity”.
On to `COc1ccc(COC(=O)[C@@H]2O[C@H]2C(=O)O)cc1` (relative stereo) [EP-102, p-methoxybenzyl potassium epoxysuccinate], for which the “ID50 (amount of inhibitor for 50% inhibition)” value in data set [1] is reported as 0.36 γ. Besides, the values for the inhibition in vivo at 100 mg/kg in data set [2] (setting [6]) and in data set [2] (setting [7]) were 28% and 31%, respectively.
In the case of `O=C([O-])C1OC1C(=O)N[C@@H](Cc1ccccc1)C(=O)[O-].[K+].[K+]` (stereo partly drawn) [EP-175, N-(3-carboxyoxirane-2-carbonyl)-L-phenylalanine dipotassium salt], the “ID50 (amount of inhibitor for 50% inhibition)” value in data set [1] was 1.90 γ. Also, the inhibition in vivo at 100 mg/kg in data set [2] (setting [8]) worked out at 32%; in data set [2] (setting [9]) it was 31.5%.
Regarding `O=C(OCc1cccs1)[C@@H]1O[C@H]1C(=O)OCc1cccs1` (relative stereo) [EP-79, di-2-thenyl epoxysuccinate], the “ID50 (amount of inhibitor for 50% inhibition)” value in data set [1] was 0.75 γ. Besides, the inhibition in vivo at 100 mg/kg in data set [2] (setting [6]) is 64.3%; in data set [2] (setting [7]), 90.2%.
On the same counts, the results for `O=C(O)[C@@H]1O[C@H]1C(=O)OC1CCCC1` (relative stereo) [EP-26, cyclopentyl potassium epoxysuccinate] are 0.08 γ, 52% and 55.5%.
On the same counts, the results for `O=C(OCCCc1ccccc1)[C@H]1O[C@@H]1C(=O)OCCCc1ccccc1` (relative stereo) [EP-131, di-3'-phenylpropyl epoxysuccinate] are 11.36 γ, 57.1% and 49.2%.
On the same counts, the results for `O=C(OC1CCCC1)[C@@H]1O[C@H]1C(=O)OC1CCCC1` (relative stereo) [EP-25, dicyclopentyl epoxysuccinate] are 3.03 γ, 52.6% and 77.8%.
Regarding `CC(C)OC(=O)[C@H]1O[C@@H]1C(=O)O` (relative stereo) [EP-139, i-propyl potassium epoxysuccinate], in data set [1], the “ID50 (amount of inhibitor for 50% inhibition)” value is listed as 0.78 γ.
The same measure, in the same setting: in the case of `O=C(OCc1ccc2c(c1)OCO2)[C@@H]1O[C@H]1C(=O)OCc1ccc2c(c1)OCO2` (relative stereo) [EP-103, di-methylene-3',4'-dioxybenzyl epoxysuccinate] it was 1.06 γ.
As for `O=C(OCc1ccccc1F)[C@H]1O[C@@H]1C(=O)OCc1ccccc1F` (relative stereo) [EP-123, di-o-fluorobenzyl epoxysuccinate], the “ID50 (amount of inhibitor for 50% inhibition)” value in data set [1] was 0.30 γ.
The same measure, in the same setting: the figure for `CCOC(=O)[C@H]1O[C@@H]1C(=O)NCC(=O)OCc1ccccc1` (relative stereo) [EP-154, N-(3-ethoxycarbonyloxirane-2-carbonyl)-glycine benzyl ester] is 43.90 γ.
Still for that read-out and setting: in the case of `O=C(O[C@H]1CC[C@H](Cl)CC1)[C@@H]1O[C@H]1C(=O)O[C@H]1CC[C@H](Cl)CC1` (relative stereo) [EP-19, di-4'-trans-chlorocyclohexyl epoxysuccinate] it was 2.01 γ.
Take `CCOC(=O)C1OC1C(=O)N[C@@H](CCCCNC(=O)OCc1ccc(OC)cc1)C(=O)OCc1ccccc1` (stereo partly drawn) [EP-169, N^α -(3-ethoxycarbonyloxirane-2-carbonyl)-N^ε -p-methoxybenzyloxycarbonyl-L-lysine benzyl ester]: the “ID50 (amount of inhibitor for 50% inhibition)” value in data set [1] was 26.50 γ.
`O=C(OC1CCCCC1)[C@@H]1O[C@H]1C(=O)OC1CCCCC1` (relative stereo) [EP-1, dicyclohexyl epoxysuccinate]: the “ID50 (amount of inhibitor for 50% inhibition)” value in data set [1] is given as 1.98 γ. Further, the figures for the inhibition in vivo at 100 mg/kg in data set [2] (setting [6]) and in data set [2] (setting [7]) were 82.1% and 77%, respectively.
